The values that follow come from patent EP4434982A1, “(S)-2-(2-METHYLAZETIDIN-1-YL)PYRIMIDINE DERIVATIVE AND PHARMACEUTICAL COMPOSITION COMPRISING SAME” (LG Chem, Ltd., priority 2021, dated 2023).

In this test the target is T1, Ketohexokinase (KHK) (Homo sapiens, UniProt P50053).
T1 construct: His tag; made in house; host or cells: E. coli
T1 sequence (P50053 1-298): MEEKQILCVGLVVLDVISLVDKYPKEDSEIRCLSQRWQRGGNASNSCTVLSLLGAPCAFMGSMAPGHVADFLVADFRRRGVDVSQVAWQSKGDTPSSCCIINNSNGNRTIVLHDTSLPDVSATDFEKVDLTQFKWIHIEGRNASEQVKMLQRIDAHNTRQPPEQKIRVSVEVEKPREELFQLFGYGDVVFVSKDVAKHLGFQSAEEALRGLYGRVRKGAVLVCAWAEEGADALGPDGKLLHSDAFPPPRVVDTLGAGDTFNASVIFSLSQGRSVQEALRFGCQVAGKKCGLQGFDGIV
The test can be described thus: measurement of activity in vitro of ketohexokinase inhibitor (Transcreener ADP2 TR-FRET Red Assay, ADP produced). It counts as biochemical. As to conditions: KHK pre-reacted with inhibitor 30 minutes, then substrate (ATP, fructose) 15 minutes; Ki by Morrison equation. The protocol:
Ketohexokinase (KHK) was expressed in E. Coli and purified using His tag. In order to measure the activity of the purified KHK, Transcreener ADP2 TR-FRET Red Assay kit of BellBrook Labs was used. A method of measuring the amount of ADP produced was used using TR-FRET after reacting a solution including a suitable concentration of KHK protein and ATP, and fructose for 15 minutes. In order to see the activity of a ketohexokinase (KHK) inhibitor, ketohexokinase (KHK) and a suitable concentration of an inhibitor were reacted first for 30 minutes, and then, reacted with a solution including the substrate of ketohexokinase (KHK) for 15 minutes. Then, reaction for TR-FRET was performed for 1 hour, and fluorescence was measured using Envision equipment of PerkinElmer. According to the optimization procedure of TR-FRET published by BellBrook Lab, the set value of the Envision equipment was determined.
The result values by concentration of the ketohexokinase (KHK) inhibitor were determined as the ratio of a wavelength of 665 nm and a wavelength of 615nm. The 665/615 ratio value by concentration of each inhibitor was converted to ADP concentration based on ADP standard curve, and inhibition activity Ki value was obtained using Morrison equation by statistical software (Prizm). Meanwhile, the Ki value is a value representing the binding affinity of the inhibitor and an enzyme, and a lower value means better inhibitory activity.
(Time-resolved FRET reads energy transfer from a long-lived donor to a nearby acceptor.)

Consider `C[C@H]1CCN1c1nc(N2C[C@@H]3[C@@H](CC(=O)N4CCNC(=O)C4)[C@@H]3C2)c2c(n1)C(F)(F)CC2` [Example 20, 4-(2-((1R,5S,6R)-3-(7,7-difluoro-2-((S)-2-methylazetidin-1-yl)-6,7-dihydro-5H-cyclopenta[d]pyrimidin-4-yl)-3-azabicyclo[3.1.0]hexan-6-yl)acetyl)piperazin-2-one], for which the Ki (as a rule, the equilibrium dissociation constant of an inhibitor or competing ligand from its target) was at most 10 nM.

In turn, `C[C@H]1CCN1c1nc(N2C[C@@H]3[C@@H](CC(=O)N4CCN(C)CC4)[C@@H]3C2)c2c(n1)C(F)(F)CC2` [Example 19, 2-((1R,5S,6R)-3-(7,7-difluoro-2-((S)-2-methylazetidin-1-yl)-6,7-dihydro-5H-cyclopenta[d]pyrimidin-4-yl)-3-azabicyclo[3.1.0]hexan-6-yl)-1-(4-methylpiperazin-1-yl)ethan-1-one] gave a Ki of at most 10 nM. `C[C@H]1CCN1c1nc(N2C[C@H]3C[C@@H](C2)[C@@H]3CC(=O)N2CCNCC2)c2c(n1)C(F)(F)OCC2` [Example 24, 2-((1R,5S,6S)-3-(8,8-difluoro-2-((S)-2-methylazetidin-1-yl)-5,8-dihydro-6H-pyrazol[3,4-d]pyrimidin-4-yl)-3-azabicyclo[3.1.1]heptan-6-yl)-1-(piperazin-1-yl)ethan-1-one] had a Ki of 10 to 100 nM.

Regarding `C[C@H]1CCN1c1nc(-c2ccc(CC(=O)N3CCNCC3)nc2)cc(C(F)(F)F)n1` [Example 31], the Ki is at most 10 nM.

Take `C[C@H]1CCN1c1nc(N2C[C@@H]3[C@H](C2)[C@H]3CS(=O)(=O)N2CCNCC2)c2c(n1)C(F)(F)CC2` [Example 25, 7,7-difluoro-2-((S)-2-methylazetidin-1-yl)-4-((1R,5S,6S)-6-((piperazin-1-ylsulfonyl)methyl)-3-azabicyclo[3.1.0]hexan-3-yl)-6,7-dihydro-5H-cyclopenta[d]pyrimidine]: the Ki was at most 10 nM. Then `C[C@H]1CCN1c1nc(-c2ccc(OCC(=O)N3CCNCC3)cc2)c2c(n1)C(F)(F)CC2` [Example 32], with 10 to 100 nM; and `C[C@H]1CCN1c1nc(N2C[C@H]3C[C@@H](C2)[C@@H]3CC(=O)N2CCNCC2)c2c(n1)C(F)(F)CC2` [Example 21, 2-((1R,5S,6S)-3-(7,7-difluoro-2-((S)-2-methylazetidin-1-yl)-6,7-dihydro-5H-cyclopenta[d]pyrimidin-4-yl)-3-azabicyclo[3.1.0]heptan-6-yl)-1-(piperazin-1-yl)ethan-1-one], with at most 10 nM; and `C[C@H]1CCN1c1nc(-c2ccc(OCC(=O)N3CCCNCC3)c(Cl)c2)c2c(n1)C(F)(F)CC2` [Example 36, (S)-2-(2-(chloro-4-(7,7-difluoro-2-(2-methylazetidin-1-yl)-6,7-dihydro-5H-cyclopenta[d]pyrimidin-4-yl)phenoxy)-1-(1,4-diazepan-1-yl)ethan-1-one)], with at most 10 nM. Then `C[C@H]1CCN1c1nc(N2CCC(OCC(=O)N3CCNCC3)CC2)c2c(n1)C(F)(F)CC2` [Example 10, (S)-2-((1-(7,7-difluoro-2-(2-methylazetidin-1-yl)-6,7-dihydro-5H-cyclopenta[d]pyrimidin-4-yl)piperidin-4-yl)oxy)-1-(piperazin-1-yl)ethan-1-one], with at most 10 nM; and `Cc1c(N2CCC(OCC(=O)N3CCNCC3)CC2)nc(N2CC[C@@H]2C)nc1C(F)(F)F` [Example 28], with 10 to 100 nM; and `C[C@H]1CCN1c1nc(N2CCC(OCC(=O)N3CCNCC3)CC2)cc(C(F)(F)F)n1` [Example 27], with 10 to 100 nM. `C[C@H]1CCN1c1nc(N2CCN(CC(=O)N3CCNCC3)CC2)cc(C(F)(F)F)n1` [Example 11, (S)-2-(4-(2-(2-methylazetidin-1-yl)-6-(trifluoromethyl)pyrimidin-4-yl)piperazin-1-yl)-1-(piperazin-1-yl)ethan-1-one]: the Ki is at most 10 nM. Then `C[C@H]1CCN1c1nc(-c2ccc(CC(=O)N3CCNCC3)cc2)c2c(n1)C(F)(F)CC2` [Example 30, (S)-2-(4-(7,7-difluoro-2-(2-methylazetidin-1-yl)-6,7-dihydro-5H-cyclopenta[d]pyrimidin-4-yl)phenyl)-1-(piperazin-1-yl)ethan-1-one], with at most 10 nM; and `C[C@H]1CCN1c1nc(-c2ccc(OCC(=O)N3CCNCC3)c(F)c2)c2c(n1)C(F)(F)CC2` [Example 33], with 10 to 100 nM; and `C[C@H]1CCN1c1nc(N2CCN(C(=O)CC(=O)N3CCNCC3)CC2)c2c(n1)C(F)(F)CC2` [Example 15], with at most 10 nM. Then `C[C@H]1CCN1c1nc(N2C[C@@H](OCC(=O)N3CCNCC3)[C@@H]2C)c2c(n1)C(F)(F)CC2` [Example 5, 2-(((2S,3R)-1-(7,7-difluoro-2-((S)-2-methylazetidin-1-yl)-6,7-dihydro-5H-cyclopenta[d]pyrimidin-4-yl)-2-methylazetidin-3-yl)oxy)-1-(piperazin-1-yl)ethan-1-one], with 10 to 100 nM.
